Test results reported in patent US8377458B2, “Cooling sensation agent composition, sensory stimulation agent composition and use of the same” (Takasago International Corporation, priority 2009, dated 2013).

Key:
[1] = test system: inside of upper parts of arms; assay: Test of a cooling towel (direct spraying), sensory evaluation; type: in vivo, human (panelists)
Experimental: Those which were air-dried for 10 minutes, 3 hours or 24 hours after spraying were sensory evaluated. The sensory evaluation was carried out by touching the cooling towel with the inside of upper parts of arms, and cooling action at that time was determined. Meanwhile, the evaluation was carried out by five panelists having 5 years or longer experience. […] The results are shown by the total score of the ranking numbers. In other words, smaller total score means to show a better cooling sensation effect.

[2] = test system: inside of upper parts of arms; assay: Test of a cooling towel (washing processed), sensory evaluation; type: in vivo, human (panelists); conditions: for total score of the ranking numbers (cooling effect on treated hand towel after washing): 1% in washing detergent
Experimental: The hand towel thus prepared and those after further air-dried for 24 hours or 48 hours were brought into contact with the inside of upper parts of arms, and the cooling action thereof was determined organoleptically. Meanwhile, the evaluation was carried out by five panelists having 5 years or longer experience. The above compounds, mixtures and menthoxypropanediol were divided into three groups of A to C (group A; […] The results are shown by the total score of the ranking numbers. […] In other words, smaller total score means to show a better cooling sensation effect.

[3] = Group A (5 samples ranked by 5 panelists, smaller = better), direct spraying 1 g of 1% ethanol solution, after 10 min air drying
[4] = Group A, direct spraying, after 3 hr air drying, smaller = better
[5] = Group A, direct spraying, after 24 hr air drying, smaller = better
[6] = Group A (4 samples ranked by 5 panelists, smaller = better), after 6 hr air drying
[7] = Group A, after 24 hr, smaller = better
[8] = Group A, after 48 hr, smaller = better
[9] = Group B, direct spraying, after 10 min air drying, smaller = better
[10] = Group B, direct spraying, after 3 hr air drying, smaller = better
[11] = Group B, direct spraying, after 24 hr air drying, smaller = better
[12] = Group B, after 6 hr, smaller = better
[13] = Group B, after 24 hr, smaller = better
[14] = Group B, after 48 hr, smaller = better
[15] = Group C, direct spraying, after 10 min air drying, smaller = better
[16] = Group C, direct spraying, after 3 hr air drying, smaller = better
[17] = Group C, direct spraying, after 24 hr air drying, smaller = better
[18] = Group C, after 6 hr, smaller = better
[19] = Group C, after 24 hr, smaller = better
[20] = Group C, after 48 hr, smaller = better

CC1CCC(C(C)C)C(OCCOC(=O)CCC(=O)OC2CC(C)CCC2C(C)C)C1 (stereo not drawn) [Compound 1, l-menthyl-(l-menthoxyethyl)succinic ester]
total score of the ranking numbers (cooling effect on treated hand towel) [1, 3]: 18
total score of the ranking numbers (cooling effect on treated hand towel) [1, 4]: 12
total score of the ranking numbers (cooling effect on treated hand towel) [1, 5]: 11
total score of the ranking numbers (cooling effect on treated hand towel after washing) [2, 6]: 11
total score of the ranking numbers (cooling effect on treated hand towel after washing) [2, 7]: 10
total score of the ranking numbers (cooling effect on treated hand towel after washing) [2, 8]: 13

CC(C)[C@@H]1CC[C@@H](C)C[C@H]1O [Compound 1-Menthol, l-menthol, reference compound]
total score of the ranking numbers (cooling effect on treated hand towel) [1, 3]: 6
total score of the ranking numbers (cooling effect on treated hand towel) [1, 4]: 24
total score of the ranking numbers (cooling effect on treated hand towel) [1, 5]: 25
total score of the ranking numbers (cooling effect on treated hand towel) [1, 9]: 7
total score of the ranking numbers (cooling effect on treated hand towel) [1, 10]: 24
total score of the ranking numbers (cooling effect on treated hand towel) [1, 11]: 25
cooling action (in words) ([1]; direct spraying, after air drying for 10 minutes): strongest cooling action
lasting / consistency of cooling action (in words) ([1]; direct spraying, over 10 min to 24 hr): less consistent

CC(C)[C@@H]1CC[C@@H](C)C[C@H]1OCC(O)COC(=O)CCC(=O)O[C@@H]1C[C@H](C)CC[C@H]1C(C)C (stereo partly drawn) [Compound 2, l-menthyl-3-(l-menthoxy)-2-(hydroxypropyl)succinic ester]
total score of the ranking numbers (cooling effect on treated hand towel) [1, 3]: 18
total score of the ranking numbers (cooling effect on treated hand towel) [1, 4]: 13
total score of the ranking numbers (cooling effect on treated hand towel) [1, 5]: 13
total score of the ranking numbers (cooling effect on treated hand towel after washing) [2, 6]: 13
total score of the ranking numbers (cooling effect on treated hand towel after washing) [2, 7]: 11
total score of the ranking numbers (cooling effect on treated hand towel after washing) [2, 8]: 12

C=C(C)C1CCC(C)CC1OC(=O)CCC(=O)OC1CC(C)CCC1C(C)C (stereo not drawn) [Compound 3, l-menthyl-(l-isopulegyl)succinic ester]
total score of the ranking numbers (cooling effect on treated hand towel) [1, 9]: 16
total score of the ranking numbers (cooling effect on treated hand towel) [1, 10]: 10
total score of the ranking numbers (cooling effect on treated hand towel) [1, 11]: 10
total score of the ranking numbers (cooling effect on treated hand towel after washing) [2, 12]: 11
total score of the ranking numbers (cooling effect on treated hand towel after washing) [2, 13]: 10
total score of the ranking numbers (cooling effect on treated hand towel after washing) [2, 14]: 10

CC(C)=CCCC(C)CCOC(=O)CCC(=O)OC1CC(C)CCC1C(C)C (stereo not drawn) [Compound 4, l-menthyl-(l-citronellyl)succinic ester]
total score of the ranking numbers (cooling effect on treated hand towel) [1, 15]: 16
total score of the ranking numbers (cooling effect on treated hand towel) [1, 16]: 18
total score of the ranking numbers (cooling effect on treated hand towel) [1, 17]: 16
total score of the ranking numbers (cooling effect on treated hand towel after washing) [2, 18]: 10
total score of the ranking numbers (cooling effect on treated hand towel after washing) [2, 19]: 12
total score of the ranking numbers (cooling effect on treated hand towel after washing) [2, 20]: 11

CC1CCC(C(C)C)C(OC(=O)CCCC(=O)OCCc2ccccc2)C1 (stereo not drawn) [Compound 6, l-menthyl-(phenylethyl)glutaric ester]
total score of the ranking numbers (cooling effect on treated hand towel) [1, 9]: 17
total score of the ranking numbers (cooling effect on treated hand towel) [1, 10]: 14
total score of the ranking numbers (cooling effect on treated hand towel) [1, 11]: 14
total score of the ranking numbers (cooling effect on treated hand towel after washing) [2, 12]: 13
total score of the ranking numbers (cooling effect on treated hand towel after washing) [2, 13]: 14
total score of the ranking numbers (cooling effect on treated hand towel after washing) [2, 14]: 14

CC(C)=CCCC(C)CCOC(=O)CCCC(=O)OC1CC(C)CCC1C(C)C (stereo not drawn) [Compound 7, l-menthyl-(l-citronellyl)glutaric ester]
total score of the ranking numbers (cooling effect on treated hand towel) [1, 15]: 15
total score of the ranking numbers (cooling effect on treated hand towel) [1, 16]: 17
total score of the ranking numbers (cooling effect on treated hand towel) [1, 17]: 18

CC1CCC(C(C)C)C(OCCOC(=O)CCCC(=O)OC2CC(C)CCC2C(C)C)C1 (stereo not drawn) [Compound 8, l-menthyl-(l-menthoxyethyl)-glutaric ester]
total score of the ranking numbers (cooling effect on treated hand towel) [1, 15]: 13
total score of the ranking numbers (cooling effect on treated hand towel) [1, 16]: 12
total score of the ranking numbers (cooling effect on treated hand towel) [1, 17]: 11
total score of the ranking numbers (cooling effect on treated hand towel after washing) [2, 18]: 13
total score of the ranking numbers (cooling effect on treated hand towel after washing) [2, 19]: 13
total score of the ranking numbers (cooling effect on treated hand towel after washing) [2, 20]: 13

CC1CCC(C(C)C)C(OC(=O)CCCC(=O)OC2CC(C)CCC2C(C)C)C1 (stereo not drawn) [Dimenthylglutaric acid, reference compound]
total score of the ranking numbers (cooling effect on treated hand towel) [1, 3]: 22
total score of the ranking numbers (cooling effect on treated hand towel) [1, 4]: 20
total score of the ranking numbers (cooling effect on treated hand towel) [1, 5]: 21
total score of the ranking numbers (cooling effect on treated hand towel) [1, 9]: 22
total score of the ranking numbers (cooling effect on treated hand towel) [1, 10]: 20
total score of the ranking numbers (cooling effect on treated hand towel) [1, 11]: 19
total score of the ranking numbers (cooling effect on treated hand towel) [1, 15]: 22
total score of the ranking numbers (cooling effect on treated hand towel) [1, 16]: 21
total score of the ranking numbers (cooling effect on treated hand towel) [1, 17]: 23

CC1CCC(C(C)C)C(OCC(O)CO)C1 (stereo not drawn) [Menthoxypropanediol, l-menthoxypropanediol, reference compound]
total score of the ranking numbers (cooling effect on treated hand towel after washing) [2, 6]: 19
total score of the ranking numbers (cooling effect on treated hand towel after washing) [2, 7]: 20
total score of the ranking numbers (cooling effect on treated hand towel after washing) [2, 8]: 19
total score of the ranking numbers (cooling effect on treated hand towel after washing) [2, 12]: 18
total score of the ranking numbers (cooling effect on treated hand towel after washing) [2, 13]: 19
total score of the ranking numbers (cooling effect on treated hand towel after washing) [2, 14]: 20
total score of the ranking numbers (cooling effect on treated hand towel after washing) [2, 18]: 19
total score of the ranking numbers (cooling effect on treated hand towel after washing) [2, 19]: 20
total score of the ranking numbers (cooling effect on treated hand towel after washing) [2, 20]: 19
cooling action (in words) ([2]; after the washing treatment and 6 hours of air drying): almost no cooling action was observed
